Laboratory results: US20250304620A1, “ANTIMICROBIAL PEPTIDE AND APPLICATION THEREOF” (priority 2023, published 2025)
Converted amounts (≈) assume the structure as drawn. Marks after values point to notes of the source that are not given here. Non-standard residues stand in square brackets, D forms with d. Residues, ends and D or L forms follow the SMILES beside them. d2Nal = N[C@H](Cc1ccc2ccccc2c1)C(=O)O

What was measured:
[1] = test system: Bacillus subtilis ATCC 6633; format: cell-based
Source text: (§1) According to the Standards of Clinical and Laboratory Standards Institute (CLSI) of the USA for antimicrobial drug susceptibility test operation standards, the micronutrient serial twofold dilution method was used further determine MICs of 30 AMPs (S/N: LV-1 to LV-30) 10 clinically common sensitive strains and 6 fungi in clinical practice. The experiment was repeated 5 times in parallel.

[2] = test system: Candida albicans ATCC MYA-2876; format: cell-based
Source text: as §1

[3] = test system: Candida glabrata ATCC 15126; format: cell-based
Source text: as §1

Candida krusei ATCC 6258 = format: cell-based
Source text: as §1

[4] = test system: Candida tropicalis ATCC 750; format: cell-based
Source text: as §1

Candida utilis ATCC 9950 = format: cell-based
Source text: as §1

[5] = test system: Corynebacterium ATCC 7715; format: cell-based
Source text: as §1

Enterococcus ATCC 29212 = format: cell-based
Source text: as §1

[6] = test system: Escherichia coli ATCC 25922; format: cell-based
Source text: as §1

[7] = test system: Klebsiella pneumoniae ATCC 700603; format: cell-based
Source text: as §1

[8] = test system: Pseudomonas aeruginosa ATCC 27853; format: cell-based
Source text: as §1

[9] = test system: Salmonella typhimurium ATCC 14028; format: cell-based
Source text: as §1

[10] = test system: Serratia marcescens ATCC 29021; format: cell-based
Source text: as §1

[11] = test system: Staphylococcus aureus ATCC 25923; format: cell-based
Source text: as §1

[12] = test system: Trichophyton ATCC MYA-4438; format: cell-based
Source text: as §1

[13] = test system: Shigella flexneri ATCC 12022; assay: MIC against clinically common bacterial strain; format: cell-based
Source text: as §1

rabbit red blood cells = format: cell-based; conditions: red cells of rabbit, 1 h
[14] = test system: Staphylococcus aureus (NRS 384); conditions: NRS 384, 3 h
Procedure: Trypsin (250 U/mg, pH=8.0) and AMPs (LV-1 to LV-30) were mixed in a ratio of 1:10 (w/w) and added to a reaction buffer (0.2 M sodium phosphate, 1 mM CaCl2), pH 7.5), and then incubated at 37° C. for 3 h.

[15] = test system: Escherichia coli ATCC 25922; assay: Oral formulations on mice with systemic bacterial infection; format: in vivo, ICR mice; conditions: three times a day for 7 days; for Number of mice that died on each day after infection: day 4 / Number of mice that died on each day after infection: day 5 / Number of mice that died on each day after infection: day 6 / Number of mice that died on each day after infection: day 7 / Number of mice that died on each day after infection: day 8 / Average survival times (Days): n = 10; for Average survival times (Days): observed for 14 d; for survival time of mice infected with Escherichia coli: gavage, observed 14 d
Procedure: Both female and male ICR mice were used in the test, half of the female and male mice were taken and randomly assigned into groups, with 10 mice in each group, and kept in separate cages. The mice were divided into a blank control group, a negative control group, a positive control Levofloxacin group, and AMPs LV-1 to LV-30 groups. An Escherichia coli ATCC 25922 bacterial suspension was prepared, a concentration of the suspension was adjusted 1×10^7 CFU/mL for subsequent use. Except for the blank control group, all other mice were injected with the Escherichia coli suspension (0.2 mL, 1×10^7 CFU/mL), into abdominal cavity of the mice, to establish a model. After the model was successfully established, the mice were given drug immediately according to their body weights. Except for the blank control group and the negative control group, the mice in all other groups were gavaged with different compounds, three times a day for 7 consecutive days. The mice were then observed for 14 d. The death of mice in each group was observed, and survival time of the mice was recorded. Results of the effect of the oral formulations of AMPs LV-1 to LV-30 on the survival time of mice infected with Escherichia coli are shown in Table 11.

[16] = Serum stability assay (residual level by RP-HPLC); conditions: human

Compound | MIC Bacillus subtilis ATCC 6633 [1] [µg/mL] | MIC Candida albicans ATCC MYA-2876 [2] [µg/mL] | MIC Candida glabrata ATCC 15126 [3] [µg/mL] | MIC Candida krusei ATCC 6258 (Candida krusei ATCC 6258) [µg/mL] | MIC Candida tropicalis ATCC 750 [4] [µg/mL] | MIC Candida utilis ATCC 9950 (Candida utilis ATCC 9950) [µg/mL] | MIC Corynebacterium ATCC 7715 [5] [µg/mL] | MIC Enterococcus ATCC 29212 (Enterococcus ATCC 29212) [µg/mL] | MIC Escherichia coli ATCC 25922 [6] [µg/mL] | MIC Klebsiella pneumoniae ATCC 700603 [7] [µg/mL] | MIC Pseudomonas aeruginosa ATCC 27853 [8] [µg/mL] | MIC Salmonella typhimurium ATCC 14028 [9] [µg/mL] | MIC Serratia marcescens ATCC 29021 [10] [µg/mL] | MIC Staphylococcus aureus ATCC 25923 [11] [µg/mL] | MIC Trichophyton ATCC MYA-4438 [12] [µg/mL] | MIC Shigella flexneri ATCC 12022 [13] [µg/mL] | MHC (minimum hemolytic concentration, lowest concentration causing 10% hemolysis) (rabbit red blood cells) [µg/mL] | Trypsin MIC [14] [µg/mL] | Number of mice that died on each day after infection: day 4 ([15]; 1 mg/kg gavage) [Mouse] | Number of mice that died on each day after infection: day 5 ([15]; 1 mg/kg gavage) [Mouse] | further results
CC(=O)N[C@H](CCCNC(=N)N)C(=O)N[C@H](CCCNC(=N)N)C(=O)N[C@H](CC(C)C)C(=O)N[C@H](CC(C)C)C(=O)N[C@H](Cc1ccc2ccccc2c1)C(=O)N[C@H](CCCNC(=N)N)C(=O)N[C@H](CC(C)C)C(=O)N[C@H](CCCNC(=N)N)C(=O)N[C@H](Cc1ccc2ccccc2c1)C(=O)N[C@H](CCCNC(=N)N)C(=O)N[C@H](CCCNC(=N)N)C(N)=O [LV-1] (Ac-[dR][dR][dL][dL][d2Nal][dR][dL][dR][d2Nal][dR][dR]-NH2) | 4 (≈ 2.31 µM) | 8 (≈ 4.62 µM) | 8 (≈ 4.62 µM) | 4 (≈ 2.31 µM) | 4 (≈ 2.31 µM) | 8 (≈ 4.62 µM) | 2 (≈ 1.16 µM) | 2 (≈ 1.16 µM) | 1 (≈ 0.578 µM) | 4 (≈ 2.31 µM) | 1 (≈ 0.578 µM) | 2 (≈ 1.16 µM) | 2 (≈ 1.16 µM) | 1 (≈ 0.578 µM) | 8 (≈ 4.62 µM) | 4 (≈ 2.31 µM) | >1000 | 1 | 0 | 0 | Number of mice that died on each day after infection: day 4 ([15]; 0.2 mg/kg gavage): 0 Mouse; Number of mice that died on each day after infection: day 5 ([15]; 0.2 mg/kg gavage): 3 Mouse; Number of mice that died on each day after infection: day 6 ([15]; 0.2 mg/kg gavage): 1 Mouse; Number of mice that died on each day after infection: day 7 ([15]; 0.2 mg/kg gavage): 0 Mouse; Number of mice that died on each day after infection: day 8 ([15]; 0.2 mg/kg gavage): 1 Mouse; Average survival times (Days) ([15]; 0.2 mg/kg gavage): 9.9** Days; Number of mice that died on each day after infection: day 6 ([15]; 1 mg/kg gavage): 1 Mouse; Number of mice that died on each day after infection: day 7 ([15]; 1 mg/kg gavage): 1 Mouse; Number of mice that died on each day after infection: day 8 ([15]; 1 mg/kg gavage): 1 Mouse; Average survival times (Days) ([15]; 1 mg/kg gavage): 11.9**** Days; Number of mice that died on each day after infection: day 4 ([15]; 5 mg/kg gavage): 0 Mouse; Number of mice that died on each day after infection: day 5 ([15]; 5 mg/kg gavage): 0 Mouse; Number of mice that died on each day after infection: day 6 ([15]; 5 mg/kg gavage): 2 Mouse; Number of mice that died on each day after infection: day 7 ([15]; 5 mg/kg gavage): 1 Mouse; Number of mice that died on each day after infection: day 8 ([15]; 5 mg/kg gavage): 0 Mouse; Average survival times (Days) ([15]; 5 mg/kg gavage): 11.7**** Days; survival time of mice infected with Escherichia coli [15]: superior to those of the Levofloxacin group; remaining at 12 h, 0.91 mg/mL [16]: 98.5%
CC(=O)N[C@H](CCCNC(=N)N)C(=O)N[C@H](CCCCN)C(=O)N[C@H](CC(C)C)C(=O)N[C@H](CC(C)C)C(=O)N[C@H](Cc1ccccc1)C(=O)N[C@H](CCCNC(=N)N)C(=O)N[C@H](CC(C)C)C(=O)N[C@H](CCCCN)C(=O)N[C@H](Cc1ccccc1)C(=O)N[C@H](CCCNC(=N)N)C(=O)N[C@H](CCCCN)C(N)=O [LV-2] (Ac-[dR][dK][dL][dL][dF][dR][dL][dK][dF][dR][dK]-NH2) | 2 (≈ 1.29 µM) | 16 (≈ 10.3 µM) | 16 (≈ 10.3 µM) | 16 (≈ 10.3 µM) | 16 (≈ 10.3 µM) | 8 (≈ 5.17 µM) | 4 (≈ 2.59 µM) | 4 (≈ 2.59 µM) | 1 (≈ 0.647 µM) | 4 (≈ 2.59 µM) | 1 (≈ 0.647 µM) | 2 (≈ 1.29 µM) | 4 (≈ 2.59 µM) | 2 (≈ 1.29 µM) | 8 (≈ 5.17 µM) | 2 (≈ 1.29 µM) | >1000 | 1 | 0 | 2 | Number of mice that died on each day after infection: day 4 ([15]; 0.2 mg/kg gavage): 1 Mouse; Number of mice that died on each day after infection: day 5 ([15]; 0.2 mg/kg gavage): 2 Mouse; Number of mice that died on each day after infection: day 6 ([15]; 0.2 mg/kg gavage): 1 Mouse; Number of mice that died on each day after infection: day 7 ([15]; 0.2 mg/kg gavage): 1 Mouse; Number of mice that died on each day after infection: day 8 ([15]; 0.2 mg/kg gavage): 1 Mouse; Average survival times (Days) ([15]; 0.2 mg/kg gavage): 9.1** Days; Number of mice that died on each day after infection: day 6 ([15]; 1 mg/kg gavage): 1 Mouse; Number of mice that died on each day after infection: day 7 ([15]; 1 mg/kg gavage): 0 Mouse; Number of mice that died on each day after infection: day 8 ([15]; 1 mg/kg gavage): 0 Mouse; Average survival times (Days) ([15]; 1 mg/kg gavage): 11.4**** Days; Number of mice that died on each day after infection: day 4 ([15]; 5 mg/kg gavage): 0 Mouse; Number of mice that died on each day after infection: day 5 ([15]; 5 mg/kg gavage): 3 Mouse; Number of mice that died on each day after infection: day 6 ([15]; 5 mg/kg gavage): 1 Mouse; Number of mice that died on each day after infection: day 7 ([15]; 5 mg/kg gavage): 0 Mouse; Number of mice that died on each day after infection: day 8 ([15]; 5 mg/kg gavage): 0 Mouse; Average survival times (Days) ([15]; 5 mg/kg gavage): 10.5*** Days; survival time of mice infected with Escherichia coli [15]: superior to those of the Levofloxacin group; remaining at 12 h, 0.91 mg/mL [16]: 97.4%
CC(=O)N[C@H](CCCNC(=N)N)C(=O)N[C@H](CCCCN)C(=O)N[C@H](CC(C)C)C(=O)N[C@H](CC(C)C)C(=O)N[C@H](Cc1ccccc1)C(=O)N[C@H](CCCNC(=N)N)C(=O)N[C@H](CC(C)C)C(=O)N[C@H](CCCCN)C(=O)N[C@H](Cc1ccc2ccccc2c1)C(=O)N[C@H](CCCNC(=N)N)C(=O)N[C@H](CCCCN)C(N)=O [LV-3] (Ac-[dR][dK][dL][dL][dF][dR][dL][dK][d2Nal][dR][dK]-NH2) | 2 (≈ 1.25 µM) | 8 (≈ 5.01 µM) | 16 (≈ 10 µM) | 16 (≈ 10 µM) | 8 (≈ 5.01 µM) | 8 (≈ 5.01 µM) | 4 (≈ 2.51 µM) | 4 (≈ 2.51 µM) | 1 (≈ 0.627 µM) | 2 (≈ 1.25 µM) | 4 (≈ 2.51 µM) | 1 (≈ 0.627 µM) | 4 (≈ 2.51 µM) | 2 (≈ 1.25 µM) | 16 (≈ 10 µM) | 2 (≈ 1.25 µM) | >1000 | 1 | 1 | 0 | Number of mice that died on each day after infection: day 6 ([15]; 1 mg/kg gavage): 1 Mouse; Number of mice that died on each day after infection: day 7 ([15]; 1 mg/kg gavage): 2 Mouse; Number of mice that died on each day after infection: day 8 ([15]; 1 mg/kg gavage): 1 Mouse; Average survival times (Days) ([15]; 1 mg/kg gavage): 10.2*** Days; remaining at 12 h, 0.91 mg/mL [16]: 98.7%
